Assay results published in paper PMC6979384, “Characterization of the plant homeodomain (PHD) reader family for their histone tail interactions” (Epigenetics & Chromatin, 2020).

What was measured:
Test in all cases: Histone peptide microarray
Assay type in all cases: binding, human
Conditions in all cases: sheet "Array Heatmap"
RAG2 = system: RAG2
Procedure, shortened: (§1)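 Recombinant GST-PHD protein at 0.5 μM; 293-member modified histone peptide array; signals averaged from four repeats ± SD.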

ING3 = system: ING3
Procedure, shortened: as §1

BAZ2B = system: BAZ2B
Procedure, shortened: as §1

PHF21A = system: PHF21A
Procedure, shortened: as §1

DIDO1 = system: DIDO1
Procedure, shortened: as §1

PHRF1 (RP) = system: PHRF1 (RP)
Procedure, shortened: as §1

PHF13 = system: PHF13
Procedure, shortened: as §1

KDM4C (TTP) = system: KDM4C (TTP)
Procedure, shortened: as §1

KDM5B (1) = system: KDM5B (1)
Procedure, shortened: as §1

CHD5 (PCC) = system: CHD5 (PCC)
Procedure, shortened: as §1

SP140L = system: SP140L
Procedure, shortened: as §1

ING1 = system: ING1
Procedure, shortened: as §1

TRIM66 (PB) = system: TRIM66 (PB)
Procedure, shortened: as §1

ING2 = system: ING2
Procedure, shortened: as §1

MORC3 (CW) = system: MORC3 (CW)
Procedure, shortened: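 Purified PHD finger domains fused to GST are screened against 293 synthetic histone peptides bearing one or several post-translational modifications. The protein is used at 0.5 μM, and the signal from four replicate arrays is averaged, with standard deviation given.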

AIRE (PP) = system: AIRE (PP)
Procedure, shortened: as §1

KDM5A (1) = system: KDM5A (1)
Procedure, shortened: as §1

PHF8 = system: PHF8
Procedure, shortened: as §1

KDM7A = system: KDM7A
Procedure, shortened: as §1

BPTF (PB) = system: BPTF (PB)
Procedure, shortened: as §1

ING5 = system: ING5
Procedure, shortened: as §1

MLL5 = system: MLL5
Procedure, shortened: as §1

CHD5 (PPCC) = system: CHD5 (PPCC)
Procedure, shortened: as §1

KDM5B (3) = system: KDM5B (3)
Procedure, shortened: as §1

PHF2 = system: PHF2
Procedure, shortened: as §1

KDM5A (3) = system: KDM5A (3)
Procedure, shortened: as §1

PHF23 = system: PHF23
Procedure, shortened: as §1

DPF2 (PPC2W2) = system: DPF2 (PPC2W2)
Procedure, shortened: as §1

CHD4 (PPCC) = system: CHD4 (PPCC)
Procedure, shortened: as §1

TAF3 = system: TAF3
Procedure, shortened: as §1

ING4 = system: ING4
Procedure, shortened: as §1

[1] = GST-tagged reader, histone peptide array, total n = 4

H3K9me2 + K27me1 (1-32): H3 1-20
Array Heatmap signal, RAG2 (RAG2; GST-tagged RAG2, arrays performed twice, total replicate number n = 4): 0.2412 | Array Heatmap signal, ING3 (ING3; GST-tagged ING3, arrays performed twice, total replicate number n = 4): 0.4513 | Array Heatmap signal, BAZ2B (BAZ2B; GST-tagged BAZ2B, arrays performed twice, total replicate number n = 4): 0.4338 | Array Heatmap signal, PHF21A (PHF21A; GST-tagged PHF21A, arrays performed twice, total replicate number n = 4): 0.4343 | Array Heatmap signal, DIDO1 (DIDO1; GST-tagged DIDO1, arrays performed twice, total replicate number n = 4): 0.7123 | Array Heatmap signal, PHRF1 (RP) (PHRF1 (RP); GST-tagged PHRF1 (RP), arrays performed twice, total replicate number n = 4): 0.767 | Array Heatmap signal, PHF13 (PHF13; GST-tagged PHF13, arrays performed twice, total replicate number n = 4): 0.5951 | Array Heatmap signal, KDM4C (TTP) (KDM4C (TTP); GST-tagged KDM4C (TTP), arrays performed twice, total replicate number n = 4): 0.4309 | Array Heatmap signal, KDM5B (1) (KDM5B (1); GST-tagged KDM5B (1), arrays performed twice, total replicate number n = 4): 0.6244 | Array Heatmap signal, CHD5 (PCC) (CHD5 (PCC); GST-tagged CHD5 (PCC), arrays performed twice, total replicate number n = 4): 0.7436 | Array Heatmap signal, SP140L (SP140L; GST-tagged SP140L, arrays performed twice, total replicate number n = 4): 0.3321 | Array Heatmap signal, ING1 (ING1; GST-tagged ING1, arrays performed twice, total replicate number n = 4): 0.5289 | Array Heatmap signal, TRIM66 (PB) (TRIM66 (PB); GST-tagged TRIM66 (PB), arrays performed twice, total replicate number n = 4): 0.6366 | Array Heatmap signal, ING2 (ING2; GST-tagged ING2, arrays performed twice, total replicate number n = 4): 0.6071 | Array Heatmap signal, MORC3 (CW) (MORC3 (CW); GST-tagged MORC3 (CW), arrays performed twice, total replicate number n = 4): 0.4746 | Array Heatmap signal, AIRE (PP) (AIRE (PP); GST-tagged AIRE (PP), arrays performed twice, total replicate number n = 4): 0.4239 | Array Heatmap signal, KDM5A (1) (KDM5A (1); GST-tagged KDM5A (1), arrays performed twice, total replicate number n = 4): 0.4383 | Array Heatmap signal, PHF8 (PHF8; GST-tagged PHF8, arrays performed twice, total replicate number n = 4): 0.3466 | Array Heatmap signal, KDM7A (KDM7A; GST-tagged KDM7A, arrays performed twice, total replicate number n = 4): 0.3071 | Array Heatmap signal, BPTF (PB) (BPTF (PB); GST-tagged BPTF (PB), arrays performed twice, total replicate number n = 4): 0.3305 | Array Heatmap signal, ING5 (ING5; GST-tagged ING5, arrays performed twice, total replicate number n = 4): 0.3315 | Array Heatmap signal, MLL5 (MLL5; GST-tagged MLL5, arrays performed twice, total replicate number n = 4): 0.5528 | Array Heatmap signal, CHD5 (PPCC) (CHD5 (PPCC); GST-tagged CHD5 (PPCC), arrays performed twice, total replicate number n = 4): 0.5173 | Array Heatmap signal, KDM5B (3) (KDM5B (3); GST-tagged KDM5B (3), arrays performed twice, total replicate number n = 4): 0.4925 | Array Heatmap signal, PHF2 (PHF2; GST-tagged PHF2, arrays performed twice, total replicate number n = 4): 0.587 | Array Heatmap signal, KDM5A (3) (KDM5A (3); GST-tagged KDM5A (3), arrays performed twice, total replicate number n = 4): 0.5076 | Array Heatmap signal, PHF23 (PHF23; GST-tagged PHF23, arrays performed twice, total replicate number n = 4): 0.5468 | Array Heatmap signal, DPF2 (PPC2W2) (DPF2 (PPC2W2); GST-tagged DPF2 (PPC2W2), arrays performed twice, total replicate number n = 4): 0.7331 | Array Heatmap signal, CHD4 (PPCC) (CHD4 (PPCC); GST-tagged CHD4 (PPCC), arrays performed twice, total replicate number n = 4): 0.5346 | Array Heatmap signal, TAF3 (TAF3; GST-tagged TAF3, arrays performed twice, total replicate number n = 4): 0.256 | Array Heatmap signal, ING4 (ING4; GST-tagged ING4, arrays performed twice, total replicate number n = 4): 0.4312

H3K9me2 + K27me2: H3 6-30
Array Heatmap signal, RAG2 (RAG2; [1]): 0.2639 | Array Heatmap signal, ING3 (ING3; [1]): 0.521 | Array Heatmap signal, BAZ2B (BAZ2B; [1]): 0.4949 | Array Heatmap signal, PHF21A (PHF21A; [1]): 0.4962 | Array Heatmap signal, DIDO1 (DIDO1; [1]): 0.6649 | Array Heatmap signal, PHRF1 (RP) (PHRF1 (RP); [1]): 0.4454 | Array Heatmap signal, PHF13 (PHF13; [1]): 0.655 | Array Heatmap signal, KDM4C (TTP) (KDM4C (TTP); [1]): 0.5461 | Array Heatmap signal, KDM5B (1) (KDM5B (1); [1]): 0.6708 | Array Heatmap signal, CHD5 (PCC) (CHD5 (PCC); [1]): 0.8305 | Array Heatmap signal, SP140L (SP140L; [1]): 0.3642 | Array Heatmap signal, ING1 (ING1; [1]): 0.5223 | Array Heatmap signal, TRIM66 (PB) (TRIM66 (PB); [1]): 0.6036 | Array Heatmap signal, ING2 (ING2; [1]): 0.6067 | Array Heatmap signal, MORC3 (CW) (MORC3 (CW); [1]): 0.385 | Array Heatmap signal, AIRE (PP) (AIRE (PP); [1]): 0.5158 | Array Heatmap signal, KDM5A (1) (KDM5A (1); [1]): 0.5009 | Array Heatmap signal, PHF8 (PHF8; [1]): 0.3721 | Array Heatmap signal, KDM7A (KDM7A; [1]): 0.3867 | Array Heatmap signal, BPTF (PB) (BPTF (PB); [1]): 0.3713 | Array Heatmap signal, ING5 (ING5; [1]): 0.3864 | Array Heatmap signal, MLL5 (MLL5; [1]): 0.5274 | Array Heatmap signal, CHD5 (PPCC) (CHD5 (PPCC); [1]): 0.6064 | Array Heatmap signal, KDM5B (3) (KDM5B (3); [1]): 0.4954 | Array Heatmap signal, PHF2 (PHF2; [1]): 0.4856 | Array Heatmap signal, KDM5A (3) (KDM5A (3); [1]): 0.4645 | Array Heatmap signal, PHF23 (PHF23; [1]): 0.5491 | Array Heatmap signal, DPF2 (PPC2W2) (DPF2 (PPC2W2); [1]): 0.6273 | Array Heatmap signal, CHD4 (PPCC) (CHD4 (PPCC); [1]): 0.615 | Array Heatmap signal, TAF3 (TAF3; [1]): 0.2757 | Array Heatmap signal, ING4 (ING4; [1]): 0.4936
